Values quoted from earlier work as cited in patent US6150513A, “Polyketide synthase enzymes and recombinant DNA constructs therefor” (Kosan Biosciences, Inc., priority 1998, dated 2000).
Like-named read-outs stand apart in the source and are kept apart here. Blank lines part the entries; values can stand above or below the molecule they belong to.

What was measured:
[1] = system: nigral-striatal dopamine neurons; conditions: administration of FKBP ligand
sensory neurons = conditions: compared with FK-506, FK-520 and rapamycin; Steiner et al., 1997
splenocyte proliferation = conditions: Luengo et al., 1995

SMILES: CCC(C)(C)C(=O)C(=O)N1CCC[C@H]1C(=O)OCCCc1cccnc1 [GPI-1046]
effect in primate MPTP model [1]: caused brain cells to regenerate and behavioral measures to improve

SMILES: CC[C@@H]1/C=C(\C)C(O)[C@H](C)C[C@H](OC)[C@H]2O[C@@](O)(C(=O)C(=O)N3CCCC[C@H]3C(=O)O[C@H](/C(C)=C/[C@@H]3CC[C@@H](O)[C@H](OC)C3)[C@H](C)[C@@H](O)CC1=O)[C@H](C)C[C@@H]2OC (stereo partly drawn) [L-685,818]
IC50 (FKBP; see Dumont et al., 1992, read-out: ED50 for FKBP binding): 0.7 nM
promoting neurite outgrowth in sensory neurons (sensory neurons): about as effective as FK-506, FK-520, and rapamycin

SMILES: CO[C@H]1C[C@@H]2CC[C@@H](C)[C@@](O)(O2)C(=O)C(=O)N2CCCC[C@H]2C(=O)O[C@H]([C@H](C)C[C@@H]2CC[C@@H](O)[C@H](OC)C2)CC(=O)[C@H](C)/C=C(\C)[C@@H](O)[C@@H](OC)C(=O)[C@H](C)C[C@H](C)C2C=CC(/C=C/1C)n1c(=O)n(-c3ccccc3)c(=O)n12 [WAY-124,466]
IC50 (FKBP; see Ocain et al., 1993, target not given, context FKBP binding, read-out: IC50): 12.5 nM
promoting neurite outgrowth in sensory neurons (sensory neurons): about as effective as FK-506, FK-520, and rapamycin

SMILES: COC1CC2CCC(C)C(O)(O2)C(=O)C(=O)N2CCCCC2C(=O)NC(CCc2ccccc2)C(=O)NCC(=O)N(C)CC(=O)OC1C (stereo not drawn) [compound 3]
binding to FKBP, poorer than FK-506 (FKBP; relative to FK-506): about 20 fold

More lines, main results first:

reduction in binding to FKBP (FKBP; relative to rapamycin, Luengo et al., 1995): 10 fold
SMILES: COC(=O)N[C@H]1C[C@@H]2CC[C@@H](C)[C@@](O)(O2)C(=O)C(=O)N2CCCC[C@H]2C(=O)O[C@H]([C@H](C)C[C@@H]2CC[C@@H](O)[C@H](OC)C2)CC(=O)[C@H](C)/C=C(\C)[C@@H](O)[C@@H](OC)C(=O)[C@H](C)C[C@H](C)/C=C/C=C/C=C/1C [compound 1]
activity in the splenocyte proliferation assay (splenocyte proliferation): complete loss of activity

binding to FKBP compared with FK-506 (FKBP; in words): about as well as FK-506
SMILES: CC1(C)COC(=O)CCCCCCOc2cccc(c2)[C@@H](CCc2ccccc2)OC(=O)[C@@H]2CCCCN2C(=O)C1=O [compound 2]
